Data published in US20220265656A1, “COMBINATION THERAPIES WITH IRE1 SMALL MOLECULE INHIBITORS” (Cornell University, priority 2019, published 2022).

Tested on: MDA-MB-231 tumors
Assay: MDA-MB-231 human triple negative breast carcinoma xenograft in athymic nude mice
Type: in vivo, mouse
Settings: MDA-MB-231 xenograft mice, 24 hours after first dose and at endpoint/Day 29
Protocol: Tumor Cell Culture and Implantation: MDA-MB-231 cells were grown to mid-log phase in RPMI 1640 medium containing 10% fetal bovine serum, 2 mM glutamine, 100 units/mL sodium penicillin G, 25 μg/mL gentamicin, and 100 μg/mL streptomycin sulfate. The tumor cells were cultured in tissue culture flasks in a humidified incubator at 37° C., in an atmosphere of 5% CO2 and 95% air. The cells were harvested during exponential growth and resuspended in cold phosphate buffered saline (PBS). Each test animal was injected subcutaneously in the right flank with 5×10^6 MDA-MB-231 cells in a 0.1 mL cell suspension. Tumor growth was monitored as the average tumor size approached the target range of 100 to 150 mm^3. Tumors were measured in two dimensions using calipers, and volume was calculated using the formula:
where w=width and l=length in mm of a MDA-MB-231 tumor. […]
Endpoint and Tumor Growth Inhibition (TGI) Analysis: Tumors were measured using calipers twice a week for the study duration. […] The study ended on Day 29 and data from this day was analyzed to determine the MTV (n), the median tumor volume for the number of animals, n, on the final day (Day 29) for each group. […] Percent tumor growth inhibition (% TGI) was defined as the difference between the MTV of the designated control group (Group 1) and the MTV of the drug-treated group, expressed as a percentage of the MTV of the control; group: […]

SMILES: COc1cc2c(C)c(CC(=O)N3CCOCC3)c(=O)oc2c(C=O)c1O [MKC-8866]
- exposure (plasma compound levels): significantly higher with multi-dosing
